# Values of other authors in patent US20200029555A1, “BIODEGRADABLE HYDROGEL TO DELIVER AQUEOUS BAIT TO CONTROL PEST ANTS” (priority 2016, published 2020).
# Columns and labels:
# [1] = tested on: laboratory colonies of queens and workers; conditions: liquid baits 0.00001-0.005% thiamethoxam; 14-day period
# [2] = tested on: Argentine ants; conditions: 0.001% liquid thiamethoxam
smiles,measurement,setting,value
CN1COCN(Cc2cnc(Cl)s2)/C1=N\[N+](=O)[O-] [thiamethoxam],mortality of laboratory colonies of queens and workers,[1],complete mortality
same,reduction of Argentine ants in urban settings,[2],successfully reduced
